The subject of data set [1] is Human small cell lung cancer LX-1 cell strain. In words: Antitumor activity in nude mice with subcutaneously transplanted LX-1 (amrubicin hydrochloride and irinotecan). Format: in vivo. Conditions: single agent at maximum tolerated dose, intravenous (amrubicin hydrochloride 25 mg/kg; irinotecan 120 mg/kg), tumor volume measured for 23 days.
The test system of data set [2] is human squamous cell lung carcinoma QC-56 cell strain. In words: Antitumor activity in nude mice with transplanted QC-56 (amrubicin hydrochloride and vinorelbine). The class given is in vivo. Conditions: single agent at maximum tolerated dose (amrubicin hydrochloride 25 mg/kg; vinorelbine 16 mg/kg). As for the experimental part: (§1) Human small cell lung cancer LX-1 cell strain was subcutaneously transplanted to nude mice (59 animals) at 6 weeks of age. After 11 days from the tumor transplantation, 36 animals having a tumor volume of about 100 to 300 mm^3 were allotted to 6 groups consisting of 6 animals per group. […] Thereafter, tumor volume and body weight of the mice were measured for 23 days.
(§2) Minimum T/C %: the minimum value of ratio (%) of tumor growth rate^*) for respective administration groups to tumor growth rate^*) for the vehicle administration group within the period for measurement. ^*)Tumor growth rate: a ratio of an average value of tumor volume for a group of 6 animals at respective point in time of measurement to an average value of tumor volume for a group of 6 animals at respective point in time of drug administration.
(§3) Antitumor activity by a combination of amrubicin hydrochloride and vinorelbine was tested in the same way as Example 1, except that human squamous cell lung carcinoma QC-56 cell strain was used in place of human small cell lung cancer LX-1 cell strain and that the maximum tolerated dose of vinorelbine was set at 16 mg/kg. Vinorelbine was administered by giving 16, 12.8 or 8 ml/kg aliquot of Navelbine Injection (containing 10 mg/ml), purchased from Kyowa Hakko Kogyo Co., Ltd., as the maximum tolerated dose, the 0.8 times dose or the 0.5 times dose of vinorelbine. In addition, nude mice (100 animals) at 5 weeks of age were used.

The test system is the same in data set [3]. The experiment in a line: Antitumor activity in nude mice with transplanted QC-56 (amrubicin hydrochloride and gemcitabine). The class given is in vivo. The settings on record: single agent at maximum tolerated dose (amrubicin hydrochloride 25 mg/kg; gemcitabine 300 mg/kg i.p. 2q7d). As for the experimental part: as §1, §2, §3
Antitumor activity by a combination of amrubicin hydrochloride and gemcitabine was tested in the same way as Example 2, except that the maximum tolerated dose of gemcitabine was set at 300 mg/kg/day and the administration was intraperitoneally once per week in two cycles. Gemcitabine was administered by giving […] aliquot of Gemzar Injection (containing 200 mg/bial), purchased from Eli Lilly Japan K.K., as the maximum tolerated dose, the 0.8 times dose or the 0.5 times dose of gemcitabine. In addition, nude mice (80 animals) at 5 weeks of age were used.

For data set [4] the following is noted: mice, cited from earlier work.
The conditions of data set [5]: humans, cited from earlier work.
For data set [6] the following is noted: humans, cited from earlier work. This is another data set of the same source.
For data set [7] the following is noted: rabbit chronic experimental model, compared with doxorubicin; Invest. New Drug, 15, 219–225 (1997); cited from earlier work.
The subject of a further data set is tumor cells. Conditions: compared with amrubicin; Cancer Chemothr. Pharmacol., 30, 51–57 (1992); cited from earlier work.
Setting [8] is: listed as amrubicin hydrochloride.

Each structure is given as a SMILES string. Where a name gives a salt, the structure may show the parent alone. Read-outs that look alike come from different tables or passages of the source.

Consider `CC(=O)[C@]1(N)Cc2c(O)c3c(c(O)c2[C@@H](OC2CC(O)C(O)CO2)C1)C(=O)c1ccccc1C3=O` (stereo partly drawn) [Amrubicin hydrochloride], for which the “Minimum T/C(%) Average ± SD” value is 40.79 ± 5.92% in data set [1]; 40.79% in data set [1] (setting [8]); 37.73 ± 7.56% in data set [2]; 37.73% in data set [2] (setting [8]); 51.06 ± 16.56% in data set [3]; 51.06% in data set [3] (setting [8]). For the same compound, the maximum tolerated dose in data set [4] (expressed per body surface) is given as 75 mg/m^2; in data set [4], 25 mg/kg; in data set [5] (administration in 3 continuous days) it was 50 mg/m^2 per day; in data set [5] (once a day single dose), 130 mg/m^2.

Take `Nc1ccn([C@@H]2O[C@H](CO)[C@@H](O)C2(F)F)c(=O)n1` [Gemcitabine]: the “Minimum T/C(%) Average ± SD” value turned out to be 69.47 ± 26.06% in data set [3] and 69.47% in data set [3] (listed as gemcitabine). The maximum administered dose in data set [6] is recorded as 1000 mg/m^2. In addition, the maximum tolerated dose in data set [4] is 300 mg/kg/dose.

Turning to `CCc1c2c(nc3ccc(OC(=O)N4CCC(N5CCCCC5)CC4)cc13)-c1cc3c(c(=O)n1C2)COC(=O)[C@]3(O)CC` [Irinotecan], the maximum administered dose in data set [6] (at intervals of 3 weeks) is given as 350 mg/m^2; in data set [6] (at intervals of a week) it was 150 mg/m^2.

With `CCC1=C[C@@H]2CN(C1)Cc1c([nH]c3ccccc13)[C@@](C(=O)OC)(c1cc3c(cc1OC)N(C)[C@H]1[C@@](O)(C(=O)OC)[C@H](OC(C)=O)[C@]4(CC)C=CCN5CC[C@]31[C@@H]54)C2` [Vinorelbine], the “Minimum T/C(%) Average ± SD” value in data set [2] is listed as 38.24 ± 12.87%; in data set [2] (listed as vinorelbine), 38.24%. Moreover, in data set [6], the maximum administered dose is listed as 25 mg/m^2. Besides, the maximum tolerated dose in data set [4] is 16 mg/kg.

In the case of `COc1cc2ncnc(Nc3ccc(F)c(Cl)c3)c2cc1OCCCN1CCOCC1` [ZD 1839, 4-(3-chloro-4-fluoroanilino)-7-methoxy-6-(3-morpholinopropoxy)quinazoline], the results for the maximum tolerated dose in data set [4] and in data set [5] were 200 mg/kg and 700 mg/day, respectively.

In the case of `CC(=O)[C@]1(N)Cc2c(O)c3c(c(O)c2[C@@H](O[C@H]2C[C@H](O)[C@H](O)CO2)C1)C(=O)c1ccccc1C3=O` [amrubicin, (+)-(7S,9S)-9-acetyl-9-amino-7-[(2-deoxy-β-D-erythro-pentopyranosyl)oxy]-7,8,9,10-tetrahydro-6,11-dihydroxy-5,12-naphthacenedione], the cardiac toxicity entry in data set [7] was “far weaker than doxorubicin”.

For the compound `CC(O)[C@]1(N)Cc2c(O)c3c(c(O)c2[C@@H](O[C@H]2C[C@H](O)[C@H](O)CO2)C1)C(=O)c1ccccc1C3=O` (stereo partly drawn) [amrubicinol], in the data set with tumor cells, the “inhibitory activity against growth of tumor cells” value was “considerably stronger inhibitory activity against growth of tumor cells than that of amrubicin”.

Take `CC(=O)O[C@@]12CO[C@@H]1C[C@H](O)[C@@]1(C)C(=O)[C@H](O)C3=C(C)[C@@H](OC(=O)[C@H](O)[C@@H](NC(=O)OC(C)(C)C)c4ccccc4)C[C@@](O)([C@@H](OC(=O)c4ccccc4)[C@H]21)C3(C)C` [docetaxel]: in data set [6], the maximum administered dose is listed as 70 mg/m^2. Further, in data set [4], the maximum tolerated dose is on record as 30 mg/kg/dose.

In the case of `CC(=O)O[C@H]1C(=O)[C@@]2(C)[C@H]([C@H](OC(=O)c3ccccc3)[C@]3(O)C[C@H](OC(=O)[C@H](O)[C@@H](NC(=O)c4ccccc4)c4ccccc4)C(C)=C1C3(C)C)[C@]1(OC(C)=O)CO[C@@H]1C[C@@H]2O` [paclitaxel], the maximum tolerated dose in data set [4] is reported as 12.5 mg/kg/dose.

The values above are taken from patent US7091189B2, “Medicament for treating lung cancer” (Dainippon Sumitomo Pharma Co., Ltd., priority 2002, dated 2006).
